pKi: −log10 of the molar value. Where two headings read alike, the source gives them in different places. Bounds are passed on as bounds.

Series [1] deals with Human recombinant cyclophilin A (Cyp A) (Homo sapiens, UniProt P62937).
Series [2] in a line: Water Solubility Assay (measured in pH 7.8 buffer).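 Note: precipitation onset detected as rise in absorbance at 650 nm across increasing concentrations, after shaking for 18 h, blank wells receiving DMSO only.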 It is filed as physicochemical.
Method: The aqueous solubility of a compound of Formula I in buffer (pH 7.8) was measured by recording the onset of precipitation of the compound as a function of increasing concentration. The onset of precipitation, if it occurred, was detected by an increase in absorbance at 650 nm.
Assay Buffer: 35 mM HEPES pH 7.8
Stock solutions of Control and Test Compounds: 10 mM in 100% DMSO
10 mM stock solutions of control and test compounds were prepared in 100% DMSO.
Assay buffer (247.5 μl) was placed into flat bottomed transparent 96-well plate. For blank samples DMSO (2.5 μl) was added. For test and control samples 2.5 μl of the appropriate DMSO dilution stocks were added to the appropriate well. All test and control compounds were performed in triplicate.
The plates were sealed with adhesive plate seal and shaken at 250 rpm at 25° C. for 18 h on a plate shaker.
After incubation the plate seals were taken off and any bubbles observed in wells removed. The plates were read on a SpectraMaxM5 with a 5 s pre-shake at 650 nm.
Data files were transferred to the appropriate worksheet and the solubility range of the compounds was calculated from the data.
Setting [3] is: pH 7.8, read-out: Water Solubility Assay.
[4] abbreviates: 35 mM HEPES pH 7.8, 1% DMSO, 25 °C, 18 h, read-out: Water Solubility Assay, concentration at which the compound remains in solution.
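Throughout, for pKi: cis to trans isomerization of SUC-AAPF-pNA by 2 nM enzyme, read as absorbance at 330 nm over 300 s at 10 °C, catalytic rate corrected for uncatalyzed background.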

Human recombinant cyclophilin A (Cyp A), sequence (P62937 whole entry): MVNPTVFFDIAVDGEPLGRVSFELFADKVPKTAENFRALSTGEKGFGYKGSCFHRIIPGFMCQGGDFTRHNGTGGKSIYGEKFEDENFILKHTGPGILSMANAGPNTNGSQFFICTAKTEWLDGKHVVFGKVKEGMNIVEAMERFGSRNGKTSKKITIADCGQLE

In the case of `CC[C@H]1NC(=O)[C@@H]([C@H](O)[C@H](C)CCN(C)CC2COCCO2)N(C)C(=O)[C@@H](C(C)C)N(C)C(=O)[C@@H](CC(C)C)N(C)C(=O)[C@@H](CC(C)C)N(C)C(=O)[C@H](C)NC(=O)[C@@H](C)NC(=O)[C@@H](CC(C)C)N(C)C(=O)[C@@H](C(C)C)NC(=O)[C@H](CC(C)C)N(C)C(=O)[C@@H](C)N(C)C1=O` (stereo partly drawn) [Compound AJ, [(3R,4R,5S)-4-Hydroxy-3-methyl-5-(methylamino)-1-(1,4-dioxan-2-ylmethyl)methylamino-hexanoic acid]^1[(R)-methyl-Sar]^3 cyclosporin A], the pKi in series [1] was 7.92.

With `CCC1NC(=O)C(C(O)C(C)CCNCCc2c[nH]cn2)N(C)C(=O)C(C(C)C)N(C)C(=O)C(CC(C)C)N(C)C(=O)C(CC(C)C)N(C)C(=O)C(C)NC(=O)C(C)NC(=O)C(CC(C)C)N(C)C(=O)C(C(C)C)NC(=O)C(CC(C)C)N(C)C(=O)C(C)N(C)C1=O` [Compound AK, [(3R,4R,5S)-4-Hydroxy-3-methyl-5-(methylamino)-1-(2-{1H-imidazol-4-yl}-ethylamino)-hexanoic acid]^1[(R)-methyl-Sar]^3 cyclosporin A], the pKi in series [1] is 7.38.

`CC(C)CC1C(=O)NC(C(C)C)C(=O)N(C)C(CC(C)C)C(=O)NC(C)C(=O)NC(C)C(=O)N(C)C(CC(C)C)C(=O)N(C)C(CC(C)C)C(=O)N(C)C(C(C)C)C(=O)N(C)C(C(O)C(C)CCN2CCOCC2)C(=O)NC(C(C)C)C(=O)N(C)CC(=O)N1C` [Compound AN, [(3R,4R,5S)-4-(hydroxy-3-methyl-5-(methylamino)-1-N-morpholino-hexanoic acid]^1 cyclosporin D]: the negative logarithm of the Ki (pKi) in series [1] was 7.82.

Consider `CCC1NC(=O)C(C(O)C(C)CCN2CCCN(C)CC2)N(C)C(=O)C(C(C)C)N(C)C(=O)C(CC(C)C)N(C)C(=O)C(CC(C)C)N(C)C(=O)C(C)NC(=O)C(C)NC(=O)C(CC(C)C)N(C)C(=O)C(C(C)C)NC(=O)C(CC(C)C)N(C)C(=O)C(C)N(C)C1=O` [Compound EG, [[(3R,4R,5S)-4-Hydroxy-3-methyl-5-(methylamino)-1-(4-methyl-[1,4]diazepan-1-yl)-hexanoic acid]^1[(R)-methyl-Sar]^3 cyclosporin A], for which the solubility at 18 h in series [2] (setting [3]) is reported as above 100 µM. In addition, the pKi in series [1] was 8.09.

Take `CCC1NC(=O)C(C(O)C(C)CCN2CC(OC)C2)N(C)C(=O)C(C(C)C)N(C)C(=O)C(CC(C)C)N(C)C(=O)C(CC(C)C)N(C)C(=O)C(C)NC(=O)C(C)NC(=O)C(CC(C)C)N(C)C(=O)C(C(C)C)NC(=O)C(CC(C)C)N(C)C(=O)C(C)N(C)C1=O` [Compound EH, [[(3R,4R,5S)-4-Hydroxy-1-(3-methoxy-azetidin-1-yl)-3-methyl-5-(methylamino)-hexanoic acid]^1[(R)-methyl-Sar]^3 cyclosporin A]: in series [2] (setting [3]), the solubility at 18 h was above 100 µM. The pKi in series [1] was 7.77.

On to `CCC1NC(=O)C(C(O)C(C)CCCN2CCOCC2)N(C)C(=O)C(C(C)C)N(C)C(=O)C(CC(C)C)N(C)C(=O)C(CC(C)C)N(C)C(=O)C(C)NC(=O)C(C)NC(=O)C(CC(C)C)N(C)C(=O)C(C(C)C)NC(=O)C(CC(C)C)N(C)C(=O)CN(C)C1=O` [Compound EI, [(4R,5R,6S)-5-Hydroxy-4-methyl-6-(methylamino)-1-(morpholin-4-yl)-heptanoic acid]^1 cyclosporin A], for which the pKi in series [1] was 7.85.

As to `CC[C@H]1NC(=O)[C@@H]([C@H](O)[C@H](C)CCN2CCOCC2)N(C)C(=O)[C@@H](C(C)C)N(C)C(=O)[C@@H](CC(C)C)N(C)C(=O)[C@@H](CC(C)C)N(C)C(=O)[C@H](C)NC(=O)[C@@H](C)NC(=O)[C@@H](CC(C)C)N(C)C(=O)[C@@H](C(C)C)NC(=O)[C@H](CC(C)C)N(C)C(=O)[C@@H](C)N(C)C1=O` [Compound F, [(3R,4R,5S)-4-(hydroxy)-3-methyl-5-(methylamino)-1-(morpholin-4-yl)hexanoic acid]^1[(R)-Me-Sar]^3 cyclosporin A], the pKi in series [1] is 8.35.

For the molecule `CC[C@H]1NC(=O)[C@@H]([C@H](O)[C@H](C)CCN2CCSCC2)N(C)C(=O)[C@@H](C(C)C)N(C)C(=O)[C@@H](CC(C)C)N(C)C(=O)[C@@H](CC(C)C)N(C)C(=O)[C@H](C)NC(=O)[C@@H](C)NC(=O)[C@@H](CC(C)C)N(C)C(=O)[C@@H](C(C)C)NC(=O)[C@H](CC(C)C)N(C)C(=O)[C@@H](C)N(C)C1=O` [Compound J, [(3R,4R,5S)-4-Hydroxy-3-methyl-5-(methylamino)-1-(thiomorpholino)-hexanoic acid]^1[(R)-Me-Sar]^3 cyclosporin A], the pKi in series [1] was 8.43.

In the case of `CC[C@H]1NC(=O)[C@@H]([C@H](O)[C@H](C)CCN2CCN(C)CC2)N(C)C(=O)[C@@H](C(C)C)N(C)C(=O)[C@@H](CC(C)C)N(C)C(=O)[C@@H](CC(C)C)N(C)C(=O)[C@H](C)NC(=O)[C@@H](C)NC(=O)[C@@H](CC(C)C)N(C)C(=O)[C@@H](C(C)C)NC(=O)[C@H](CC(C)C)N(C)C(=O)[C@@H](C)N(C)C1=O` [Compound L, [(3R,4R,5S)-4-hydroxy-3-methyl-5-(methylamino)-1-(4-methylpiperazino)-hexanoic acid]^1[(R)-Me-Sar]^3 cyclosporin A], in series [1], the pKi is 8.14.

Consider `CC[C@H]1NC(=O)[C@@H]([C@H](O)[C@H](C)CCN2CCN(C)CC2)N(C)C(=O)[C@@H](C(C)C)N(C)C(=O)[C@@H](CC(C)C)N(C)C(=O)[C@@H](CC(C)C)N(C)C(=O)[C@H](C)NC(=O)[C@@H](C)NC(=O)[C@@H](CC(C)C)N(C)C(=O)[C@@H](C(C)C)NC(=O)[C@H](CC(C)C)N(C)C(=O)CN(C)C1=O` [Compound LL], for which the negative-log Ki (pKi) in series [1] is 7.34.

In the case of `CC[C@H]1NC(=O)[C@@H]([C@H](O)[C@H](C)CCN2CCNC(=O)C2)N(C)C(=O)[C@@H](C(C)C)N(C)C(=O)[C@@H](CC(C)C)N(C)C(=O)[C@@H](CC(C)C)N(C)C(=O)[C@H](C)NC(=O)[C@@H](C)NC(=O)[C@@H](CC(C)C)N(C)C(=O)[C@@H](C(C)C)NC(=O)[C@H](CC(C)C)N(C)C(=O)[C@@H](C)N(C)C1=O` [Compound N, [(3R,4R,5S)-4-hydroxy-3-methyl-5-(methylamino)-1-(N-3-piperazinone)-hexanoic acid]^1[(R)-Me-Sar]^3 cyclosporin A], the pKi in series [1] is 8.21.

In the case of `CC[C@H]1NC(=O)[C@@H]([C@H](O)[C@H](C)CCN2CCNC(=O)C2)N(C)C(=O)[C@@H](C(C)C)N(C)C(=O)[C@@H](CC(C)C)N(C)C(=O)[C@@H](CC(C)C)N(C)C(=O)[C@H](C)NC(=O)[C@@H](C)NC(=O)[C@@H](CC(C)C)N(C)C(=O)[C@@H](C(C)C)NC(=O)[C@H](CC(C)C)N(C)C(=O)CN(C)C1=O` [Compound NN], the pKi in series [1] was 6.92.

Turning to `CC[C@H]1NC(=O)[C@@H]([C@H](O)[C@H](C)CCN2CCS(=O)(=O)CC2)N(C)C(=O)[C@@H](C(C)C)N(C)C(=O)[C@@H](CC(C)C)N(C)C(=O)[C@@H](CC(C)C)N(C)C(=O)[C@H](C)NC(=O)[C@@H](C)NC(=O)[C@@H](CC(C)C)N(C)C(=O)[C@@H](C(C)C)NC(=O)[C@H](CC(C)C)N(C)C(=O)[C@@H](C)N(C)C1=O` [Compound P, [(3R,4R,5S)-4-Hydroxy-3-methyl-5-(methylamino)-1-(1,1-dioxo-thiomorpholino)-hexanoic acid]^1[(R)-Me-Sar]^3 cyclosporin A], the pKi in series [1] is 8.49.

In the case of `CC[C@H]1NC(=O)[C@@H]([C@H](O)[C@H](C)CCCC(=O)N2CCN(C)CC2)N(C)C(=O)[C@@H](C(C)C)N(C)C(=O)[C@@H](CC(C)C)N(C)C(=O)[C@@H](CC(C)C)N(C)C(=O)[C@H](C)NC(=O)[C@@H](C)NC(=O)[C@@H](CC(C)C)N(C)C(=O)[C@@H](C(C)C)NC(=O)[C@H](CC(C)C)N(C)C(=O)[C@@H](C)N(C)C1=O` [Compound T, [(5R,6R,7S)-6-hydroxy-5-methyl-7-(methylamino)-1-(4-methylpiperazin-1-yl)-1-oxo-octanoic acid]^1[(R)-methyl-Sar]^3 cyclosporin A], in series [2] (setting [4]), the solubility at 18 h is recorded as above 100 µM. Moreover, the negative logarithm of the Ki (pKi) in series [1] is 8.30.

On to `CCC1NC(=O)C(C(O)C(C)CCCC(=O)NCCS(=O)(=O)N(C)C)N(C)C(=O)C(C(C)C)N(C)C(=O)C(CC(C)C)N(C)C(=O)C(CC(C)C)N(C)C(=O)C(C)NC(=O)C(C)NC(=O)C(CC(C)C)N(C)C(=O)C(C(C)C)NC(=O)C(CC(C)C)N(C)C(=O)C(C)N(C)C1=O` [Compound W, [(5R,6R,7S)-6-hydroxy-5-methyl-7-(methylamino)-1-(2-{sulfonic acid dimethylamide}-ethylamino)-1-oxo-octanoic acid]^1[(R)-methyl-Sar]^3 cyclosporin A], for which, in series [2] (setting [4]), the solubility at 18 h is given as above 100 µM. Further, in series [1], the pKi was 8.72.

Turning to `CCC1NC(=O)C(C(O)C(C)CCCC(=O)NCCc2c[nH]cn2)N(C)C(=O)C(C(C)C)N(C)C(=O)C(CC(C)C)N(C)C(=O)C(CC(C)C)N(C)C(=O)C(C)NC(=O)C(C)NC(=O)C(CC(C)C)N(C)C(=O)C(C(C)C)NC(=O)C(CC(C)C)N(C)C(=O)C(C)N(C)C1=O` [Compound Y, [(5R,6R,7S)-6-hydroxy-5-methyl-7-(methylamino)-1-(2-{1H-imidazol-4-yl}-ethylamino)-1-oxo-octanoic acid]^1[(R)-methyl-Sar]^3 cyclosporin A], in series [2] (setting [4]), the solubility at 18 h is recorded as above 100 µM. Also, the pKi in series [1] was 8.39.

Regarding `CC[C@H]1NC(=O)[C@@H]([C@H](O)[C@H](C)CCCC(=O)N2CCS(=O)(=O)CC2)N(C)C(=O)[C@@H](C(C)C)N(C)C(=O)[C@@H](CC(C)C)N(C)C(=O)[C@@H](CC(C)C)N(C)C(=O)[C@H](C)NC(=O)[C@@H](C)NC(=O)[C@@H](CC(C)C)N(C)C(=O)[C@@H](C(C)C)NC(=O)[C@H](CC(C)C)N(C)C(=O)[C@@H](C)N(C)C1=O` [Compound Z, [(5R,6R,7S)-6-hydroxy-5-methyl-7-(methylamino)-1-({1,1-dioxo}thiomorpholin-4-yl)-1-oxo-octanoic acid]^1[(R)-methyl-Sar]^3 cyclosporin A], the solubility at 18 h in series [2] (setting [4]) is above 100 µM. In addition, in series [1], the pKi was 8.70.

As to “[(3R,4R,5S)-4-Hydroxy-3-methyl-5-(methylamino)-1-2-(N,N-diethylamino)ethoxy-hexanoic acid]^1[(S)-thio-isopropyl-Sar]^3 cyclosporin A [Compound AL]”, the pKi in series [1] was 7.57.

Values taken from US20160039880A1 (priority 2012, published 2016).
